# Values of other authors, collected in patent US20220225651A1, “STEVIOL GLYCOSIDE AND FERULIC ACID FORMULATIONS FOR FOOD AND BEVERAGES” (Sweegen, Inc., priority 2021, published 2022).
# Conditions: sweetness relative to sucrose
row,Compound,times sweeter than sucrose
1,C=C1C[C@@]23CC[C@H]4[C@@](C)(CCC[C@@]4(C)C(=O)O[C@@H]4O[C@H](CO)[C@@H](O)[C@H](O)[C@H]4O)[C@@H]2CC[C@]1(O[C@@H]1O[C@H](CO)[C@@H](O)[C@H](O)[C@H]1O[C@@H]1O[C@H](CO)[C@@H](O)[C@H](O)[C@H]1O)C3 [stevioside],100-150 times
2,C=C1C[C@@]23CC[C@H]4[C@@](C)(CCC[C@@]4(C)C(=O)O[C@@H]4O[C@H](CO)[C@@H](O)[C@H](O)[C@H]4O)[C@@H]2CC[C@]1(O[C@@H]1O[C@H](CO)[C@@H](O)[C@H](O)[C@H]1O[C@@H]1O[C@@H](C)[C@H](O)[C@@H](O)[C@H]1O)C3 [Dulcoside A],about 30 times
3,Rebaudioside C,40-60 times
